Measured values: patent US20260053812A1, “METHODS OF TREATING HYPERTENSION WITH A COMBINATION OF AN ALDOSTERONE SYNTHASE INHIBITOR AND A DIURETIC” (Mineralys Therapeutics, Inc., priority 2022, published 2026)

Assay: Adverse events (TEAEs, SAEs, AESI; Safety Analysis Set)
From the text: In analyses performed on the Safety Analysis Set, subjects will be analyzed according to their actual treatment received.

CC(=O)N[C@H]1CC[C@H](NC(=O)CN2CCN(c3nncc(-c4ccc(C)cc4)n3)CC2)CC1 [Compound A HBr]
(3.0) %: On-treatment TEAE, Cardiac disorders, % (Part 1, Active (N = 133)) | On-treatment TEAE, Hyperkalaemia, Moderate, % (Part 1, Active (N = 133)) | On-treatment TEAE, Investigations, Moderate, % (Part 1, Active (N = 133)) | On-treatment TEAE, Metabolism and nutrition disorders, Moderate, % (Part 1, Active (N = 133)) | On-treatment TEAE, Urinary tract infection, Mild, % (Part 1, Active (N = 133)) | On-treatment TEAE, Vascular disorders, Moderate, % (Part 1, Active (N = 133))
(21.8) %: On-treatment TEAE, Metabolism and nutrition disorders, Mild, % (Part 1, Active (N = 133))
(13.3) %: Subjects with any On-treatment TEAEs leading to withdrawal from study drug, % (Part 1, 100 mg QD (N = 30))
(19.5) %: On-treatment TEAE, Hyperkalaemia, Mild, % (Part 1, Active (N = 133))
(7.5) %: Subjects with any On-treatment TEAEs leading to withdrawal from study drug, % (Part 1, Active (N = 133))
(2.3) %: On-treatment TEAE, Blood creatinine increased, % (Part 1, Active (N = 133)) | On-treatment TEAE, Blood creatinine increased, Mild, % (Part 1, Active (N = 133)) | On-treatment TEAE, Cortisol decreased, % (Part 1, Active (N = 133)) | On-treatment TEAE, Cortisol decreased, Mild, % (Part 1, Active (N = 133)) | On-treatment TEAE, Dizziness, % (Part 1, Active (N = 133)) | On-treatment TEAE, Headache, % (Part 1, Active (N = 133)) | On-treatment TEAE, Headache, Mild, % (Part 1, Active (N = 133)) | On-treatment TEAE, Hypertension, Moderate, % (Part 1, Active (N = 133)) | On-treatment TEAE, Orthostatic hypotension, % (Part 1, Active (N = 133)) | On-treatment TEAE, Orthostatic hypotension, Mild, % (Part 1, Active (N = 133)) | On-treatment TEAE, Psychiatric disorders, % (Part 1, Active (N = 133)) | On-treatment TEAE, Psychiatric disorders, Moderate, % (Part 1, Active (N = 133))
(20.0) %: On-treatment TEAE, Investigations, Mild, % (Part 1, 100 mg QD (N = 30))
(6.8) %: On-treatment TEAE, Glomerular filtration rate decreased, % (Part 1, Active (N = 133)) | On-treatment TEAE, Vascular disorders, % (Part 1, Active (N = 133))
(8.3) %: On-treatment TEAE, Infections and infestations, % (Part 1, Active (N = 133))
(3.3) %: On-treatment TEAE, Urinary tract infection, % (Part 1, 100 mg QD (N = 30)) | On-treatment TEAE, Vascular disorders, % (Part 1, 100 mg QD (N = 30)) | On-treatment TEAE, Vascular disorders, Moderate, % (Part 1, 100 mg QD (N = 30)) | TEAE leading to permanent discontinuation from study drug, Activated partial thromboplastin time prolonged, % (Part 1, 100 mg QD (N = 30)) | TEAE leading to permanent discontinuation from study drug, Hypotension, % (Part 1, 100 mg QD (N = 30)) | TEAE leading to permanent discontinuation from study drug, Investigations, % (Part 1, 100 mg QD (N = 30)) | TEAE leading to permanent discontinuation from study drug, Vascular disorders, % (Part 1, 100 mg QD (N = 30))
(6.7) %: On-treatment TEAE, Infections and infestations, % (Part 1, 100 mg QD (N = 30)) | On-treatment TEAE, Infections and infestations, Moderate, % (Part 1, 100 mg QD (N = 30)) | On-treatment TEAE, Investigations, Moderate, % (Part 1, 100 mg QD (N = 30)) | On-treatment TEAE, Psychiatric disorders, % (Part 1, 100 mg QD (N = 30)) | On-treatment TEAE, Psychiatric disorders, Moderate, % (Part 1, 100 mg QD (N = 30)) | TEAE leading to permanent discontinuation from study drug, Hyperkalaemia, % (Part 1, 100 mg QD (N = 30)) | TEAE leading to permanent discontinuation from study drug, Metabolism and nutrition disorders, % (Part 1, 100 mg QD (N = 30))
(0.8) %: On-treatment TEAE, Hyperkalaemia, Severe, % (Part 1, Active (N = 133)) | Subjects with any On-treatment TEAEs, Severe, % (Part 1, Active (N = 133)) | TEAE leading to permanent discontinuation from study drug, Activated partial thromboplastin time prolonged, % (Part 1, Active (N = 133)) | TEAE leading to permanent discontinuation from study drug, Cardiac disorders, % (Part 1, Active (N = 133)) | TEAE leading to permanent discontinuation from study drug, Coronary artery disease, % (Part 1, Active (N = 133)) | TEAE leading to permanent discontinuation from study drug, Dizziness, % (Part 1, Active (N = 133)) | TEAE leading to permanent discontinuation from study drug, Hypertension, % (Part 1, Active (N = 133)) | TEAE leading to permanent discontinuation from study drug, Hypotension, % (Part 1, Active (N = 133)) | TEAE leading to permanent discontinuation from study drug, Investigations, % (Part 1, Active (N = 133)) | TEAE leading to permanent discontinuation from study drug, Nervous system disorders, % (Part 1, Active (N = 133)) | TEAE leading to permanent discontinuation from study drug, Orthostatic hypotension, % (Part 1, Active (N = 133))
(6.0) %: On-treatment TEAE, Glomerular filtration rate decreased, Mild, % (Part 1, Active (N = 133)) | On-treatment TEAE, Nervous system disorders, % (Part 1, Active (N = 133))
(4.5) %: On-treatment TEAE, Gastrointestinal disorders, % (Part 1, Active (N = 133)) | On-treatment TEAE, Infections and infestations, Moderate, % (Part 1, Active (N = 133)) | On-treatment TEAE, Nervous system disorders, Mild, % (Part 1, Active (N = 133))
(26.7) %: On-treatment TEAE, Hyperkalaemia, Mild, % (Part 1, 100 mg QD (N = 30)) | On-treatment TEAE, Investigations, % (Part 1, 100 mg QD (N = 30)) | On-treatment TEAE, Metabolism and nutrition disorders, % (Part 1, 100 mg QD (N = 30)) | On-treatment TEAE, Metabolism and nutrition disorders, Mild, % (Part 1, 100 mg QD (N = 30))
(3.8) %: On-treatment TEAE, Gastrointestinal disorders, Mild, % (Part 1, Active (N = 133)) | On-treatment TEAE, General disorders and administration site conditions, % (Part 1, Active (N = 133)) | On-treatment TEAE, Hypertension, % (Part 1, Active (N = 133)) | On-treatment TEAE, Infections and infestations, Mild, % (Part 1, Active (N = 133)) | On-treatment TEAE, Vascular disorders, Mild, % (Part 1, Active (N = 133)) | TEAE leading to permanent discontinuation from study drug, Hyperkalaemia, % (Part 1, Active (N = 133)) | TEAE leading to permanent discontinuation from study drug, Metabolism and nutrition disorders, % (Part 1, Active (N = 133))
(30.0) %: Subjects with any On-treatment TEAEs, Mild, % (Part 1, 100 mg QD (N = 30))
(1.5) %: On-treatment TEAE, Blood and lymphatic system disorders, % (Part 1, Active (N = 133)) | On-treatment TEAE, Blood and lymphatic system disorders, Mild, % (Part 1, Active (N = 133)) | On-treatment TEAE, General disorders and administration site conditions, Mild, % (Part 1, Active (N = 133))
(18.8) %: Subjects with any On-treatment TEAEs, Moderate, % (Part 1, Active (N = 133))
(12.8) %: On-treatment TEAE, Investigations, Mild, % (Part 1, Active (N = 133))
(25.6) %: On-treatment TEAE, Metabolism and nutrition disorders, % (Part 1, Active (N = 133))
(5.3) %: On-treatment TEAE, Urinary tract infection, % (Part 1, Active (N = 133))
(35.3) %: Subjects with any On-treatment TEAEs, Mild, % (Part 1, Active (N = 133))
(23.3) %: Subjects with any On-treatment TEAEs, Moderate, % (Part 1, 100 mg QD (N = 30)) | On-treatment TEAE, Hyperkalaemia, % (Part 1, Active (N = 133))
(15.8) %: On-treatment TEAE, Investigations, % (Part 1, Active (N = 133))
